16 compounds from ChEMBL document CHEMBL5137037, “Phage Display Selected Cyclic Peptide Inhibitors of Kallikrein-Related Peptidases 5 and 7 and Their In Vivo Delivery to the Skin” (J Med Chem, 2022) can be followed below.

pKi: −log10 of the molar value. Numbered stars: 1 amine (or outer) side, 2 acyl side, 3 side chain; on linkers, the order of the positions; unused ones are H or OH. Bridge positions count the residues as written; N and C are the ends. Peptide text beside a SMILES is read from it. Pyridine(2,6-diCH2) = c1cc(C[*:1])nc(C[*:2])c1; CH2COCH2 = O=C(C[*:1])C[*:2] Some results are limits rather than exact numbers.

The target of this test is Kallikrein-7 (Homo sapiens, UniProt P49862). The experiment in a line: Inhibition of C-terminal poly-His-tagged human recombinant KLK7 (30 to 253 residues) transfected in CHO cells assessed as inhibition constant using KHLY-pNA as fluorogenic substrate incubated for 30 mins by fluorescence plate reader assay. In kind it is cell-based.
Chain of Kallikrein-7 (P49862 whole entry, the tested form may be a part): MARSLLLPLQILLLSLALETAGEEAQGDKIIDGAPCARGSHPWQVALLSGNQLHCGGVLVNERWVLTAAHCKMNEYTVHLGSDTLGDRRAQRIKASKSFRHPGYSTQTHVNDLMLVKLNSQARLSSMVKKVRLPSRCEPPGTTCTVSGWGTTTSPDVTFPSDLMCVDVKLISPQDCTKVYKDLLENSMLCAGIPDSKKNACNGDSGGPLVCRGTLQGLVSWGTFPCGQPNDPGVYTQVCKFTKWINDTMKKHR
Regarding `CC(C)C[C@@H]1NC(=O)[C@@H](NC(=O)[C@@H]2CCCN2)CSCc2cccc(n2)CSC[C@@H](C(=O)N[C@@H](CO)C(=O)O)NC(=O)[C@H](CO)NC(=O)[C@H](CC(C)C)NC(=O)[C@H](Cc2ccccc2)NC1=O` (H-PCLFLSCS-OH; linker 2-7 via Pyridine(2,6-diCH2)), the pKi was 6.66.

For `CC(C)C[C@@H]1NC(=O)[C@H](Cc2ccc(O)cc2)NC(=O)[C@H](CC(C)C)NC(=O)[C@@H](NC(=O)[C@@H]2CCCN2)CSCc2cccc(n2)CSC[C@@H](C(=O)N[C@@H](CO)C(=O)O)NC(=O)[C@H](C)NC1=O` (H-PCLYLACS-OH; linker 2-7 via Pyridine(2,6-diCH2)), the pKi is 7.76.

Consider `CC(C)C[C@@H]1NC(=O)[C@H](Cc2ccc(O)cc2)NC(=O)[C@H](CC(C)C)NC(=O)[C@@H](NC(=O)[C@@H]2CCCN2)CSCC(=O)CSC[C@@H](C(=O)N[C@@H](CO)C(=O)O)NC(=O)[C@H](CCC(N)=O)NC(=O)[C@H](C)NC1=O` (H-PCLYLAQCS-OH; linker 2-8 via CH2COCH2), for which the pKi is 7.44.

Regarding `CC(C)C[C@@H]1NC(=O)[C@H](Cc2ccc(O)cc2)NC(=O)[C@H](CC(C)C)NC(=O)[C@@H](N)CSCc2cccc(n2)CSC[C@@H](C(=O)N[C@@H](CO)C(=O)O)NC(=O)[C@H](C)NC1=O` (H-CLYLACS-OH; linker 1-6 via Pyridine(2,6-diCH2)), the pKi was 6.70.

`CC(C)C[C@@H]1NC(=O)[C@@H](NC(=O)[C@@H]2CCCN2)CSCc2cccc(n2)CSC[C@@H](C(=O)N[C@@H](CO)C(=O)O)NC(=O)[C@H]([C@@H](C)O)NC(=O)[C@H](CC(C)C)NC(=O)[C@H](Cc2ccc(O)cc2)NC1=O` (H-PCLYLTCS-OH; linker 2-7 via Pyridine(2,6-diCH2)): the pKi is 7.28.

Consider `CC(C)C[C@@H]1NC(=O)[C@@H](NC(=O)[C@@H]2CCCN2)CSCc2cccc(n2)CSC[C@@H](C(=O)N[C@@H](CO)C(=O)O)NC(=O)[C@H](CO)NC(=O)[C@H](CCC(N)=O)NC(=O)[C@H](Cc2ccc(O)cc2)NC1=O` (H-PCLYQSCS-OH; linker 2-7 via Pyridine(2,6-diCH2)), for which the pKi was 6.36.

For `CC(C)C[C@@H]1NC(=O)[C@H](Cc2ccc(O)cc2)NC(=O)[C@H](CC(C)C)NC(=O)[C@@H](NC(=O)[C@@H]2CCCN2)CSCc2cccc(n2)CSC[C@@H](C(=O)O)NC(=O)[C@H](C)NC1=O` (mixture of isomers), the pKi is 7.72.

In the case of `CC(C)C[C@@H]1NC(=O)[C@@H](NC(=O)C(N)CCC(N)=O)CSCc2cccc(n2)CSC[C@@H](C(=O)N[C@@H](CO)C(=O)O)NC(=O)[C@H](CO)NC(=O)[C@H](CC(C)C)NC(=O)[C@H](Cc2ccc(O)cc2)NC1=O` (single isomer, unassigned), the pKi is 7.92.

As for `CCCCCCCCCCCCCCCC(=O)NCCCC[C@H](NC(=O)[C@H](CCC(=O)O)NC(=O)[C@H](Cc1ccc(O)cc1)NC(=O)[C@H](CCC(=O)O)NC(=O)COCCOCCNC(=O)c1ccc(-c2c3ccc(=O)cc-3oc3cc(O)ccc23)c(C(=O)O)c1)C(=O)N[C@@H](CCC(=O)O)C(=O)N[C@@H](Cc1ccc(O)cc1)C(=O)N[C@@H](CCC(=O)O)C(=O)NCCOCCOCC(=O)NCCCC[C@H](NC(=O)CNC(=O)[C@@H]1CSCC(=O)CSC[C@H](NC(=O)[C@@H]2CCCN2)C(=O)N[C@@H](CC(C)C)C(=O)N[C@@H](Cc2ccc(O)cc2)C(=O)N[C@@H](CCCC)C(=O)N[C@@H](C)C(=O)N[C@@H](CCCNC(=N)N)C(=O)N1)C(=O)NCC(N)=O`, the negative logarithm of the Ki (pKi) is 8.15.

In the case of `CC[C@H](C)[C@@H]1NC(=O)[C@H](CCCNC(=N)N)NC(=O)[C@H](Cc2ccc(O)cc2)NC(=O)[C@H](CC(C)C)NC(=O)[C@@H](NC(=O)[C@H](CCC(N)=O)NC(=O)[C@@H]2CCCN2C(=O)[C@@H]2CSCc3cccc(n3)CSC[C@H](NC(=O)[C@@H](N)Cc3c[nH]cn3)C(=O)N[C@@H](CCCNC(=N)N)C(=O)N[C@@H](CCCCN)C(=O)NCC(=O)N[C@@H](CC(C)C)C(=O)N[C@@H](CC(=O)O)C(=O)N[C@@H](CCCNC(=N)N)C(=O)N2)CSCc2cccc(n2)CSC[C@@H](C(=O)N[C@@H](CO)C(N)=O)NC1=O` (H-HCRKGLDRCPQCLYRICS-NH2; linker 2-9, 12-17 via Pyridine(2,6-diCH2)), the pKi was 7.18.

For the compound `CC(C)C[C@@H]1NC(=O)[C@@H](NC(=O)[C@@H]2CCCN2)CSCc2cccc(n2)CSC[C@@H](C(=O)N[C@@H](CO)C(=O)O)NC(=O)[C@H](CO)NC(=O)[C@H](CC(C)C)NC(=O)[C@H](Cc2ccc(O)cc2)NC1=O` (H-PCLYLSCS-OH; linker 2-7 via Pyridine(2,6-diCH2)), the negative logarithm of the Ki (pKi) was 7.53.

Consider `CSCC[C@H](NC(=O)[C@@H]1CSCc2cccc(n2)CSC[C@H](NC(=O)[C@@H](N)CCCNC(=N)N)C(=O)N[C@@H](CC(=O)O)C(=O)N[C@@H](CO)C(=O)N[C@@H](CO)C(=O)N[C@@H](CCC(N)=O)C(=O)N1)C(=O)N[C@@H](CCC(N)=O)C(=O)NCC(=O)N[C@@H](CCC(N)=O)C(=O)N[C@H]1CSCc2cccc(n2)CSC[C@@H](C(=O)N2CCC[C@H]2C(=O)O)NC(=O)[C@H](CO)NC(=O)[C@H](CCCNC(=N)N)NC(=O)[C@H](Cc2ccc(O)cc2)NC(=O)[C@H](CC(C)C)NC1=O` (H-RCDSSQCMQGQCLYRSCP-OH; linker 2-7, 12-17 via Pyridine(2,6-diCH2)), for which the pKi is 7.03.

For `CC(C)C[C@@H]1NC(=O)[C@@H](NC(=O)C(N)CCCNC(=N)N)CSCc2cccc(n2)CSC[C@@H](C(=O)N[C@@H](CO)C(=O)O)NC(=O)[C@H](CO)NC(=O)[C@H](CC(C)C)NC(=O)[C@H](Cc2ccc(O)cc2)NC1=O` (single isomer, unassigned), the negative-log Ki (pKi) was 8.06.

Turning to `CSCC[C@@H]1NC(=O)[C@H](Cc2ccc(O)cc2)NC(=O)[C@H](CC(C)C)NC(=O)[C@@H](NC(=O)[C@@H]2CCCN2)CSCC(=O)CSC[C@@H](C(=O)N[C@@H](CO)C(=O)O)NC(=O)[C@H](CCCNC(=N)N)NC(=O)[C@H](C)NC1=O` (H-PCLYMARCS-OH; linker 2-8 via CH2COCH2), the pKi was 8.00.

For `CC(C)C[C@@H]1NC(=O)[C@@H](NC(=O)[C@@H](N)Cc2ccccc2)CSCC(=O)CSC[C@@H](C(=O)N[C@@H](CCC(N)=O)C(=O)N2CCC[C@H]2C(=O)N2CCC[C@H]2C(=O)N[C@@H](CCC(=O)O)C(=O)N[C@@H](C)C(=O)N[C@H]2CSCC(=O)CSC[C@@H](C(=O)N[C@@H](CCC(=O)O)C(=O)O)NC(=O)[C@H](CCC(N)=O)NC(=O)[C@H](CO)NC(=O)[C@@H]3CCCN3C2=O)NC(=O)[C@H](Cc2c[nH]c3ccccc23)NC(=O)[C@@H]2CCCN2C(=O)[C@H](Cc2c[nH]c3ccccc23)NC1=O` (H-FCLWPWCQPPEACPSQCE-OH; linker 2-7, 13-17 via CH2COCH2), the pKi is less than 6.00.

For the compound `CC(C)C[C@@H]1NC(=O)[C@@H](NC(=O)[C@@H]2CCCN2)CSCc2cccc(n2)CSC[C@@H](C(=O)N[C@@H](CO)C(=O)O)NC(=O)[C@H](CO)NC(=O)[C@H](CCCNC(=N)N)NC(=O)[C@H](Cc2ccc(O)cc2)NC1=O` (H-PCLYRSCS-OH; linker 2-7 via Pyridine(2,6-diCH2)), the pKi was 7.28.
